From US20230131899A1, “INHIBITORS OF MICROBIALLY INDUCED AMYLOID” (Axial Therapeutics, Inc., priority 2020, published 2023)
Read-outs that look alike come from different tables or passages of the source.

Target: T1, E. coli CsgA (Escherichia coli, UniProt P28307)
T1 construct: made in house; host or cells: E. coli NEB 3016 slyD::kan, pET11d
Experiment: In vitro ThioflavinT assay of CsgA aggregation (CsgA ThT Assay)
Format: biochemical
Conditions: 1005 minutes; for remaining activity at 25 µM: compound 25 μM; for remaining activity at 100 µM: compound 100 μM
Procedure, shortened: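 Purified C-terminal His-tagged CsgA, monomerised by desalting and 30-kDa filtration, at 2-20 μM with 20-40 μM ThT in 50 mM potassium phosphate pH 7.3, 1% DMSO, compounds 3.125-200 uM; room temperature, fluorescence (ex 438/em 495 nm) read every 15 min. Background-subtracted signal expressed as percent inhibition versus vehicle at 6-6.5 or 8-9 h, or as percent control AUC.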

[1] = read-out: CsgA ThT Assay (10 μM CsgA) % Control AUC at 1005 minutes, 25 μM (activity range), CsgA 10 μM, black plates, class symbol
[2] = read-out: CsgA ThT Assay (10 μM CsgA) % Control AUC at 1005 minutes, 25 μM, mean AUC as % of DMSO control, CsgA 10 μM, black plates
[3] = read-out: CsgA ThT Assay (10 μM CsgA) % Control AUC at 1005 minutes, 100 μM (activity range), CsgA 10 μM, black plates, class symbol
[4] = read-out: CsgA ThT Assay (10 μM CsgA) % Control AUC at 1005 minutes, 100 μM, mean AUC as % of DMSO control, CsgA 10 μM, black plates

T1 sequence (P28307 23-151): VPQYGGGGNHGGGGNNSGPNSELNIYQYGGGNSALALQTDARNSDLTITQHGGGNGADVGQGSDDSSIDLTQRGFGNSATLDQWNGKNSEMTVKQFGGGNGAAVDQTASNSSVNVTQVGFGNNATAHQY

| Compound | remaining activity at 25 µM [1] [%] | remaining activity at 25 µM [2] [%] | remaining activity at 100 µM [3] [%] | remaining activity at 100 µM [4] [%] |
| --- | --- | --- | --- | --- |
| O=C(O)C1CSc2c(-c3cccc(C(F)(F)F)c3)c(Cc3cccc4ccccc34)cc(=O)n21 (racemic) [Compound 011, 7-(naphthalen-1-ylmethyl)-5-oxo-8-(3-(trifluoromethyl)phenyl)-2,3-dihydro-5H-thiazolo[3,2-a]pyridine-3-carboxylic acid] | > 60 | 63 | > 60 | 62 |
| CCCCCN1CC(C(=O)O)n2c(c(-c3cccc(C(F)(F)F)c3)c(Cc3cccc4ccccc34)cc2=O)S1(=O)=O (racemic) [Compound 025, 8-(naphthalen-1-ylmethyl)-6-oxo-2-pentyl-9-(3-(trifluoromethyl)phenyl)-3,4-dihydro-2H,6H-pyrido[1,2-e][1,2,5]thiadiazine-4-carboxylic acid 1,1-dioxide] | 31 to 60 | 49 |  |  |
| O=C(O)C1C[S+]([O-])c2c(-c3cccc(C(F)(F)F)c3)c(Cc3cccc4ccccc34)cc(=O)n21 (racemic) [Compound 027b, 7-(naphthalen-1-ylmethyl)-5-oxo-8-(3-(trifluoromethyl)phenyl)-2,3-dihydro-5H-thiazolo[3,2-a]pyridine-3-carboxylic acid 1-oxide] | > 60 | 108 | > 60 | 74 |
| O=C(O)[C@@H]1CS(=O)(=O)c2c(-c3cccc(C(F)(F)F)c3)c(Cc3cccc4ccccc34)cc(=O)n21 (single isomer, unassigned) [Compound 010a, 7-(naphthalen-1-ylmethyl)-5-oxo-8-(3-(trifluoromethyl)phenyl)-2,3-dihydro-5H-thiazolo[3,2-a]pyridine-3-carboxylic acid 1,1-dioxide] | > 60 | 85 | 31 to 60 | 37 |
| O=C(O)[C@H]1CS(=O)(=O)c2c(-c3cccc(C(F)(F)F)c3)c(Cc3cccc4ccccc34)cc(=O)n21 (single isomer, unassigned) [Compound 010b, 7-(naphthalen-1-ylmethyl)-5-oxo-8-(3-(trifluoromethyl)phenyl)-2,3-dihydro-5H-thiazolo[3,2-a]pyridine-3-carboxylic acid 1,1-dioxide] | > 60 | 85 | 31 to 60 | 45 |
| O=C(O)C1CSc2c(-c3cccc(C(F)(F)F)c3)c(Cc3cccc4ccccc34)cc(=O)n21 (single isomer, unassigned) [Compound 011a, 7-(naphthalen-1-ylmethyl)-5-oxo-8-(3-(trifluoromethyl)phenyl)-2,3-dihydro-5H-thiazolo[3,2-a]pyridine-3-carboxylic acid] | 31 to 60 | 47 | 31 to 60 | 41 |
| CCN1CC(C(=O)O)n2c(c(-c3cccc(C(F)(F)F)c3)c(Cc3cccc4ccccc34)cc2=O)S1(=O)=O (single isomer, unassigned) [Compound 015a, 2-ethyl-8-(naphthalen-1-ylmethyl)-6-oxo-9-(3-(trifluoromethyl)phenyl)-3,4-dihydro-2H,6H-pyrido[1,2-e][1,2,5]thiadiazine-4-carboxylic acid 1,1-dioxide] | 11 to 31 | 25 | 11 to 31 | 17 |
| COc1ccc(CN2C[C@@H](C(=O)O)n3c(c(-c4cccc(C(F)(F)F)c4)c(Cc4cccc5ccccc45)cc3=O)S2(=O)=O)cc1 (single isomer, unassigned) [Compound 026a] | 31 to 60 | 41 |  |  |
| CN(C)CCN1CC(C(=O)O)n2c(c(-c3cccc(C(F)(F)F)c3)c(Cc3cccc4ccccc34)cc2=O)S1(=O)=O (stereo not drawn) [Compound 017, 2-(2-(dimethylamino)ethyl)-8-(naphthalen-1-ylmethyl)-6-oxo-9-(3-(trifluoromethyl)phenyl)-3,4-dihydro-2H,6H-pyrido[1,2-e][1,2,5]thiadiazine-4-carboxylic acid 1,1-dioxide] | > 60 | 95 | > 60 | 70 |
| O=C(O)CN1CC(C(=O)O)n2c(c(-c3cccc(C(F)(F)F)c3)c(Cc3cccc4ccccc34)cc2=O)S1(=O)=O (stereo not drawn) [Compound 018, 2-(carboxymethyl)-8-(naphthalen-1-ylmethyl)-6-oxo-9-(3-(trifluoromethyl)phenyl)-3,4-dihydro-2H,6H-pyrido[1,2-e][1,2,5]thiadiazine-4-carboxylic acid 1,1-dioxide] | > 60 | 95 | 31 to 60 | 60 |
| O=C(O)C1CSc2c(-c3cccc(C(F)(F)F)c3)c(Cc3cccc4ccccc34)nc(=O)n21 (stereo not drawn) [Compound 022, 7-(naphthalen-1-ylmethyl)-5-oxo-8-(3-(trifluoromethyl)phenyl)-2,3-dihydro-5H-thiazolo[3,2-c]pyrimidine-3-carboxylic acid] | > 60 | 70 | 11 to 31 | 23 |
| Nc1c(Cc2cccc3ccccc23)c(-c2cccc(C(F)(F)F)c2)c2n(c1=O)C(C(=O)O)CS2(=O)=O (stereo not drawn) [Compound 023, 6-amino-7-(naphthalen-1-ylmethyl)-5-oxo-8-(3-(trifluoromethyl)phenyl)-2,3-dihydro-5H-thiazolo[3,2-a]pyridine-3-carboxylic acid 1,1-dioxide] | > 60 | 73 | 31 to 60 | 34 |
| C=CCCN1CC(C(=O)O)n2c(c(-c3cccc(C(F)(F)F)c3)c(Cc3cccc4ccccc34)cc2=O)S1(=O)=O (stereo not drawn) [Compound 024, 2-(but-3-en-1-yl)-8-(naphthalen-1-ylmethyl)-6-oxo-9-(3-(trifluoromethyl)phenyl)-3,4-dihydro-2H,6H-pyrido[1,2-e][1,2,5]thiadiazine-4-carboxylic acid 1,1-dioxide] | 31 to 60 | 35 | 31 to 60 | 39 |
| NC(=O)CN1CC(C(=O)O)n2c(c(-c3cccc(C(F)(F)F)c3)c(Cc3cccc4ccccc34)cc2=O)S1(=O)=O (stereo not drawn) [Compound 028, 2-(2-amino-2-oxoethyl)-8-(naphthalen-1-ylmethyl)-6-oxo-9-(3-(trifluoromethyl)phenyl)-3,4-dihydro-2H,6H-pyrido[1,2-e][1,2,5]thiadiazine-4-carboxylic acid 1,1-dioxide] | > 60 | 66 | 11 to 31 | 27 |
| CN1CC(C(N)=O)n2c(c(-c3cccc(C(F)(F)F)c3)c(Cc3cccc4ccccc34)cc2=O)S1(=O)=O (stereo not drawn) [Compound 030, 2-methyl-8-(naphthalen-1-ylmethyl)-6-oxo-9-(3-(trifluoromethyl)phenyl)-3,4-dihydro-2H,6H-pyrido[1,2-e][1,2,5]thiadiazine-4-carboxamide 1,1-dioxide] | > 60 | 82 |  |  |
